“Also recorded” adds a separate entry of the source.
Columns and labels:
Format in all cases: cell-based
human PXR = biological target: T1, human PXR (Homo sapiens, UniProt O75469); test: Reporter assay in LS intestinal cells transfected with human PXR + reporter; details: 24 h incubation, dose-response, up to the maximum tested concentration, four cell passages
T1 sequence (O75469 1-434): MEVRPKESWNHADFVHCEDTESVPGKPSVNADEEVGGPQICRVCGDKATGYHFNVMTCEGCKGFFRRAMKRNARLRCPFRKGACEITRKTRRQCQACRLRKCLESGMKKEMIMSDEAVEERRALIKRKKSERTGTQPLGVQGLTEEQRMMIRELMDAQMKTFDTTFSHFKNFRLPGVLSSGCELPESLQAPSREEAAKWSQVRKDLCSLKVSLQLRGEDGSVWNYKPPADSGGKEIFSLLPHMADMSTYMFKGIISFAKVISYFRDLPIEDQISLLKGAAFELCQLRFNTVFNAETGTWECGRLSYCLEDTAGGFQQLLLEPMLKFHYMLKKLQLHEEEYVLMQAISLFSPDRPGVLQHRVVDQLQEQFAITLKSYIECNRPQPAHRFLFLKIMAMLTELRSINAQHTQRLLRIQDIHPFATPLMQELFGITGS
Description: Reporter assay was performed using LS intestinal cells transfected with human PXR + reporter. Incubation time was 24 h and a dose-response curve was plotted. Results were confirmed using four different cells passages.
Percent displacement of reporter from human PXR as a function of MDCA concentration was evaluated and the results are shown in FIG. 9.
A reporter assay was performed using LS intestinal cells transfected with human PXR + reporter. Incubation time was 24 h and a dose-response curve was plotted. Results were confirmed using four different cells passages.

human PXR (hPXR) = biological target: T2, human PXR (hPXR) (Homo sapiens, UniProt O75469); test: Luciferase reporter assay with human PXR (hPXR) plasmid; details: in vitro at 5 µM
T2 construct: expressed in transfected cells
T2 sequence (O75469 1-434): T1 sequence (O75469 1-434)
Excerpt: (§1) Data are expressed as average of relative luciferase units among the technical triplicates ± S.E. Asterisks (*) represent statistically significant difference as compared to the vehicle group (one-way ANOVA followed by Duncan’s post hoc test, p < 0.05).
(§2) The prototypical mPXR ligand pregnenolone 16α-carbonitrile (PCN) was used as a positive control (FIG. 4B right panel). […] The prototypical hPXR ligand rifampicin (Rif) was used as a positive control (FIG. 4B left panel).

mouse PXR (mPXR) = biological target: T3, mouse PXR (mPXR) (Mus musculus, UniProt O54915); test: Luciferase reporter assay with mouse PXR (mPXR) plasmid; details: in vitro at 1 µM and 10 µM
T3 construct: expressed in transfected cells
T3 sequence (O54915 1-431): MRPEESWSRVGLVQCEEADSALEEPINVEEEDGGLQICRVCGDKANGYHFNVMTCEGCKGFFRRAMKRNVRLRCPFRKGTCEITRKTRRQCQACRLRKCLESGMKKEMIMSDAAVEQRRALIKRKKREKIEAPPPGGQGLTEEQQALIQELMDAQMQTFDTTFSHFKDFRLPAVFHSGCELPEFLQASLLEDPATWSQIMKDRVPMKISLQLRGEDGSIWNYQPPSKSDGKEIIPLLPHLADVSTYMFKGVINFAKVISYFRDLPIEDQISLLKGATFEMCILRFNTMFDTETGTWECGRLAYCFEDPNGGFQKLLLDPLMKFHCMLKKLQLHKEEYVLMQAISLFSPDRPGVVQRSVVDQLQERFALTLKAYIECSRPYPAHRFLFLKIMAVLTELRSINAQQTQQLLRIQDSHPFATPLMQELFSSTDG
Excerpt: as §1, §2

Row | Compound | binding affinity towards PXR (percent displacement of reporter from human PXR) (human PXR; listed as MDCA) | hPXR activation (relative luciferase units vs vehicle) (human PXR (hPXR)) | binding affinity towards PXR (percent displacement of reporter from human PXR) (human PXR) | mPXR activation (relative luciferase units vs vehicle) (mouse PXR (mPXR))
1 | C[C@H](CCC(=O)O)[C@H]1CC[C@H]2[C@@H]3C[C@H](O)[C@@H]4C[C@H](O)CC[C@]4(C)[C@H]3CC[C@]12C [murideoxycholic acid] | no binding affinity; also recorded: totally inactive |  |  | 
2 | C[C@H](CCC(=O)O)[C@H]1CC[C@H]2[C@@H]3[C@@H](O)[C@H](O)[C@@H]4C[C@H](O)CC[C@]4(C)[C@H]3CC[C@]12C [omega muricholic acid, ω-muricholic acid] |  | weakly activated | effective binding | activated

From US20230128120A1, “OMEGA MURICHOLIC ACID AS A PREGNANE X RECEPTOR LIGAND FOR TREATING HEPATO-INTESTINAL DISEASES” (University of Washington, priority 2021, published 2023)
